Article PMC4618944, “Congo Red Interactions with Curli-Producing E. coli and Native Curli Amyloid Fibers” (PLoS ONE, 2015)

Target: T1, curli (CsgA amyloid fibers) (Escherichia coli, UniProt P28307)
T1 construct: native curli fibers isolated from MC4100, mature CsgA polymer (sec signal removed; native fibers may contain minor nucleator CsgB); immobilized by amine coupling for SPR
Experiment: surface plasmon resonance (Biacore […]), curli immobilized on CM5 chip
Type: binding

T1 sequence (P28307 21-151): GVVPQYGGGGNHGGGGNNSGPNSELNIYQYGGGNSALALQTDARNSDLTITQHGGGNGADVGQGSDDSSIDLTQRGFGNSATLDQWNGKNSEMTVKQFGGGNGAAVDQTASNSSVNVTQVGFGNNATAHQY

**Q.** How did the Kd turn out when `Nc1c(/N=N/c2ccc(-c3ccc(/N=N/c4cc(S(=O)(=O)O)c5ccccc5c4N)cc3)cc2)cc(S(=O)(=O)O)c2ccccc12` [CR, Congo red] was run?
**A.** 2800 nM
